The source of these data is PubChem BioAssay (NCI).

Among the test systems are CAKI-1 renal; CCRF-CEM leukemia; HCC-2998 colon; HCT-15 colon; HT29 colon; K-562 leukemia; NCI-H23 lung; SF-539 CNS; SK-OV-3 ovarian; TK-10 renal.
Test in all cases: DTP human tumour cell line panel, 48 h

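Five concentrations, 48 hours, 96-well plates. GI50 marks 50% less growth. TGI is the concentration that stops growth completely.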 Some results are limits rather than exact numbers.

The term TGI denotes the concentration at which net growth stops. Higher therefore signals less potent growth arrest. As for `CS(=O)(=O)OCc1c(O)c2c(c(O)c1COS(C)(=O)=O)C(=O)C=CC2=O`, the TGI with CAKI-1 renal, in the assay with CCRF-CEM leukemia, in the assay with HCC-2998 colon, with HCT-15 colon, with HT29 colon and in the assay with K-562 leukemia was above 100 µM each time. Besides, the TGI in the assay with NCI-H23 lung, in the assay on SF-539 CNS, in the assay on SK-OV-3 ovarian and in the assay with TK-10 renal was above 100 µM throughout.

In the case of `Cc1ccc(S(=O)(=O)NCCSS(=O)(=O)c2ccc(C)cc2)cc1`, the TGI in the assay on CCRF-CEM leukemia was above 100 µM; in the assay on HCC-2998 colon, above 100 µM; in the assay with HCT-15 colon, 37.8 µM; in the assay with HT29 colon it was 53.4 µM; in the assay with K-562 leukemia, above 100 µM; with NCI-H23 lung, above 100 µM. The TGI with SK-OV-3 ovarian and with TK-10 renal was above 100 µM throughout.

Regarding `O=C(/N=C/c1c(O)c2ccccc2oc1=O)NC1CCCCC1`, the TGI in the assay on HCC-2998 colon, in the assay on HCT-15 colon, with HT29 colon, in the assay on NCI-H23 lung, in the assay with SF-539 CNS and with TK-10 renal was above 100 µM in each case.

Regarding `CC(C)Cc1cccc(C(C)C)c1NC(=O)CCC(=O)N/N=C1\C(=N/NC(=O)CCC(=O)Nc2c(C(C)C)cccc2C(C)C)C(c2ccc3c(c2)OCO3)Oc2ccccc21` (configuration not stated), the TGI with CAKI-1 renal, in the assay with CCRF-CEM leukemia, with HCC-2998 colon, in the assay with HCT-15 colon, with HT29 colon and with K-562 leukemia was above 100 µM throughout. Also, the TGI in the assay with NCI-H23 lung, in the assay on SF-539 CNS, in the assay with SK-OV-3 ovarian and with TK-10 renal was above 100 µM in each case.

For the molecule `CN(C)CCC(C(=O)C(C)(C)C)c1ccccn1` (configuration not stated), the TGI in the assay on CAKI-1 renal, in the assay with CCRF-CEM leukemia, with HCC-2998 colon, in the assay with HCT-15 colon, with HT29 colon and with K-562 leukemia was above 100 µM in each case. Also, the TGI with NCI-H23 lung, in the assay with SK-OV-3 ovarian and in the assay on TK-10 renal was above 100 µM in each case.

Turning to `O=c1cc(-c2nc3ccccc3[nH]2)[nH]c2nc(-c3nc4ccccc4[nH]3)cc(-c3ccc(Cl)cc3)c12`, the TGI in the assay with CAKI-1 renal is 76 µM; with CCRF-CEM leukemia it was 91.6 µM; in the assay with HCT-15 colon it was 25.5 µM; in the assay on HT29 colon, 42.5 µM; with K-562 leukemia, 68.8 µM; in the assay on NCI-H23 lung, above 100 µM. Further, the figures for the TGI in the assay with SF-539 CNS, in the assay with SK-OV-3 ovarian and in the assay on TK-10 renal were 31.8 µM, 46.1 µM and 49 µM, respectively.

Regarding `ClCC1(CCl)COC1`, the TGI with CCRF-CEM leukemia, with HCC-2998 colon, in the assay with HCT-15 colon, in the assay with HT29 colon, with K-562 leukemia and with NCI-H23 lung was above 100 µM throughout. Moreover, the TGI in the assay with SK-OV-3 ovarian and in the assay on TK-10 renal was above 100 µM throughout.

On to `C[C@H](O)C(=O)SC[C@H](NC(=O)CC[C@@H](N)C(=O)O)C(=O)NCC(=O)O`, for which the TGI in the assay with CAKI-1 renal, in the assay with CCRF-CEM leukemia, in the assay with HCC-2998 colon, with HCT-15 colon, with HT29 colon and with K-562 leukemia was above 100 µM each time. Moreover, the concentration for total growth inhibition (TGI) in the assay with NCI-H23 lung, in the assay with SK-OV-3 ovarian and with TK-10 renal was above 100 µM in each case.

One may read the GI50 as the concentration at which growth is held to half of that of the control. With `COc1ccc(-n2cc(-c3ccc(OC)c(OC)c3)nc2SCc2ccccc2)cc1Cl`, the GI50 with CAKI-1 renal was 41.7 µM; in the assay with CCRF-CEM leukemia, 0.857 µM; in the assay on HCC-2998 colon it was 19.3 µM; with HCT-15 colon it was 20 µM; with HT29 colon, 17 µM; with K-562 leukemia, 9.05 µM. In addition, the GI50 was 22.7 µM in the assay with NCI-H23 lung, 24.5 µM in the assay with SF-539 CNS, 66.6 µM in the assay on SK-OV-3 ovarian and 29.5 µM in the assay with TK-10 renal. In addition, the TGI in the assay with CAKI-1 renal is above 100 µM; with CCRF-CEM leukemia it was 31.2 µM; in the assay with HCC-2998 colon, 45.5 µM; with HCT-15 colon, above 100 µM; in the assay on HT29 colon it was above 100 µM; in the assay with K-562 leukemia, 39.3 µM. The TGI with NCI-H23 lung was above 100 µM; with SF-539 CNS it was 79.5 µM; in the assay with SK-OV-3 ovarian it was above 100 µM; in the assay on TK-10 renal, above 100 µM.

Take `FC(F)(F)C1=NC(=NNc2nnc(-c3ccccc3)c(-c3ccccc3)n2)N=C(C(F)(F)F)C1`: the TGI with CAKI-1 renal is above 100 µM; in the assay with CCRF-CEM leukemia, above 100 µM; in the assay with HCC-2998 colon, above 88.9 µM; in the assay with HCT-15 colon, above 100 µM; in the assay with HT29 colon, above 100 µM; in the assay on K-562 leukemia, above 100 µM. For the same molecule, the TGI in the assay on NCI-H23 lung, in the assay on SF-539 CNS and in the assay on SK-OV-3 ovarian was above 100 µM in each case.

As for `C=C1C(=O)OC2/C=C(\C)CC(O)/C=C(/CO)CC(OC(=O)/C(C)=C/C)C12` (configuration not stated), the TGI with CAKI-1 renal came to 238 µM; with CCRF-CEM leukemia, 76 µM; in the assay with HCC-2998 colon, 134 µM; in the assay on HCT-15 colon, 151 µM; in the assay on HT29 colon, 303 µM; in the assay with K-562 leukemia, 64.4 µM. Besides, the TGI in the assay on NCI-H23 lung worked out at 136 µM; in the assay with SF-539 CNS it was 115 µM; in the assay with SK-OV-3 ovarian, 309 µM.
